Experimental data published in ChEMBL document CHEMBL4043168, “The design and SAR of a novel series of 2-aminopyridine based LRRK2 inhibitors” (Bioorg Med Chem Lett, 2017).

Experiments:
[1] = biological target: Leucine-rich repeat serine/threonine-protein kinase 2 (Homo sapiens, UniProt Q5S007); experiment: Inhibition wild type LRRK2 (unknown origin) Ser935 phosphorylation in HEK293 cells; assay type: cell-based
[2] = Ratio of unbound drug level in mouse brain to plasma at 10 mg/kg, po; assay type: ADME, organism-based; settings: read-out: K(p,uu,brain)
[3] = biological target: Tyrosine-protein kinase ABL1 (Homo sapiens) (UniProt P00519); experiment: Inhibition of ABL labeling at activation Loop (LMTGDTYTAHAGAKFPIK) in human PBMC at 1 uM
[4] = biological target: Calcium/calmodulin-dependent protein kinase type II subunit beta (Homo sapiens) (UniProt Q13554); experiment: Inhibition of CaMK2b labeling at conserved Lys2 (DLKPENLLLASK) in human PBMC at 1 uM
[5] = biological target: Mitogen-activated protein kinase 1 (Homo sapiens) (UniProt P28482); experiment: Inhibition of Erk2 ATP binding site (DLKPSNLLLNTTCDLK) in human PBMC at 1 uM
Sequence of Mitogen-activated protein kinase 1 (Homo sapiens) (P28482 whole entry): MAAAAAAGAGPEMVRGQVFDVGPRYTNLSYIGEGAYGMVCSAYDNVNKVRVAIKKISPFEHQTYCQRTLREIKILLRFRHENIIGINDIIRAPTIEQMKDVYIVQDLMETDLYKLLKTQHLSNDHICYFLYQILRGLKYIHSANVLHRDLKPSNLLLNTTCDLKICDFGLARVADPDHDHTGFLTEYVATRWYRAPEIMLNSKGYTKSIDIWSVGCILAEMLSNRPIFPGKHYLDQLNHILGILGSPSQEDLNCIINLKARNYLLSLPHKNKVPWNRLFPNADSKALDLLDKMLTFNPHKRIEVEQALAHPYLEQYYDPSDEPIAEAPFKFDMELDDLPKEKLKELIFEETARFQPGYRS

[6] = biological target: Tyrosine-protein kinase Fgr (Homo sapiens) (UniProt P09769); experiment: Inhibition of FGR conserved Lys1 (LIKDDEYNPCQGSKFPIK) in human PBMC at 1 uM
[7] = biological target: eIF-2-alpha kinase GCN2 (Homo sapiens) (UniProt Q9P2K8); experiment: Inhibition of GCN2 conserved Lys2 (DLKPVNIFLDSDDHVK) in human PBMC at 1 uM
[8] = biological target: Serine/threonine-protein kinase TBK1 (Homo sapiens) (UniProt Q9UHD2); experiment: Inhibition of TBK1 conserved Lys2 (DIKPGNIMR) in human PBMC at 1 uM
Sequence of Serine/threonine-protein kinase TBK1 (Homo sapiens) (Q9UHD2 whole entry): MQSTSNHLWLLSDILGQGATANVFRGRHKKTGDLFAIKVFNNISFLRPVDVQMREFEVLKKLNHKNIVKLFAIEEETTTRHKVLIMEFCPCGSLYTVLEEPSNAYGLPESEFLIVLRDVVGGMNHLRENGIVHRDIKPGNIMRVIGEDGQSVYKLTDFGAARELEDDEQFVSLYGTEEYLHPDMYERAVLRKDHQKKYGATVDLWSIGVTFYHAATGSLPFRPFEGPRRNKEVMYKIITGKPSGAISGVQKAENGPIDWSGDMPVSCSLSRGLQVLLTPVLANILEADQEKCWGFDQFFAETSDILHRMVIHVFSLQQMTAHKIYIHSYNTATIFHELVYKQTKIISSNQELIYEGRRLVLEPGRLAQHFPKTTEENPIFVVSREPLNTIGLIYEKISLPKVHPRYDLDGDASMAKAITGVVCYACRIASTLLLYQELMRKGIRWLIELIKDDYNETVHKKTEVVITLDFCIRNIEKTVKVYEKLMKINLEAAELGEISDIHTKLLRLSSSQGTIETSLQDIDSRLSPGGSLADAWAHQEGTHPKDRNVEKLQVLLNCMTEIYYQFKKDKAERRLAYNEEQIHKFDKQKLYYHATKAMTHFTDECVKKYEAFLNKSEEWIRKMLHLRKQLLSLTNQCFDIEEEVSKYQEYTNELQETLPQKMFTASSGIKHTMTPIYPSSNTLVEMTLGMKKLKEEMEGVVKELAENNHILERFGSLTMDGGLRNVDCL

[9] = biological target: Serine/threonine-protein kinase 10 (Homo sapiens) (UniProt O94804); experiment: Inhibition of LOK conserved Lys2 (DLKAGNVLMTLEGDIR) in human PBMC at 1 uM; settings: pooled result: one value given for 6 cell lines, strains, targets or settings
[10] = biological target: Dual specificity mitogen-activated protein kinase kinase 3 (Homo sapiens) (UniProt P46734); experiment: Inhibition of MAP2K3 conserved Lys2 (DVKPSNVLINK) in human PBMC at 1 uM
Sequence of Dual specificity mitogen-activated protein kinase kinase 3 (Homo sapiens) (P46734 whole entry): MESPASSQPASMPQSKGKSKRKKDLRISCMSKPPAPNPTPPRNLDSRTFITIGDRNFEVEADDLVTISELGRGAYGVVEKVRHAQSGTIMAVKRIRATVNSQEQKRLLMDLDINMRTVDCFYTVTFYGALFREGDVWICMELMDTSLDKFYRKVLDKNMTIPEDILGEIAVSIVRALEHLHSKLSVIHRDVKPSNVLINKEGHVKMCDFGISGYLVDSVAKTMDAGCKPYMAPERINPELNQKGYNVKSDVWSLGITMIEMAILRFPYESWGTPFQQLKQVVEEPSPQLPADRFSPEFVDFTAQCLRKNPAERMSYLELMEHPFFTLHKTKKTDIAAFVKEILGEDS

[11] = biological target: Serine/threonine-protein kinase Nek6 (Homo sapiens) (UniProt Q9HC98); experiment: Inhibition of NEK6 conserved Lys2 (DIKPANVFITATGVVK) in human PBMC at 1 uM
Sequence of Serine/threonine-protein kinase Nek6 (Homo sapiens) (Q9HC98 whole entry): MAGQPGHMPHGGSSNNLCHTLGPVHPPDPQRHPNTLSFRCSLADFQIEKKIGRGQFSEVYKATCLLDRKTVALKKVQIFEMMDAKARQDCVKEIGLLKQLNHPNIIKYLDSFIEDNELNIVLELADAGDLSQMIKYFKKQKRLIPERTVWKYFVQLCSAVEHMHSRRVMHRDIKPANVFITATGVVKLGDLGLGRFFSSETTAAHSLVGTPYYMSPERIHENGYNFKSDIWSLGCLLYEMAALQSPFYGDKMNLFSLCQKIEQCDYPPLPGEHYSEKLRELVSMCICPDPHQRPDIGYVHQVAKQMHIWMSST

[12] = biological target: Mitogen-activated protein kinase 13 (Homo sapiens) (UniProt O15264); experiment: Inhibition of p38d conserved Lys2 (DLKPGNLAVNEDCELK) in human PBMC at 1 uM
Sequence of Mitogen-activated protein kinase 13 (Homo sapiens) (O15264 whole entry, the tested form may be a part): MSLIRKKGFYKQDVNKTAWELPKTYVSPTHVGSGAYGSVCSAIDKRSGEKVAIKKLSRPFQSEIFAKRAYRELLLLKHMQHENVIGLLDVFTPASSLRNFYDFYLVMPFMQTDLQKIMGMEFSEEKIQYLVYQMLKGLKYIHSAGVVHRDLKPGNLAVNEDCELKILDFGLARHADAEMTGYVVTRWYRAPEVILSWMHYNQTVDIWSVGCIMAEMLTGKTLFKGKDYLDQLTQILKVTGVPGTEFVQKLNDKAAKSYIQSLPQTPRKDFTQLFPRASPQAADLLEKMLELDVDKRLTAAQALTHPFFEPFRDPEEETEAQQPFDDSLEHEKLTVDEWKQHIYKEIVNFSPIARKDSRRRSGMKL

[13] = biological target: Protein kinase C alpha type (Homo sapiens) (UniProt P17252); experiment: Inhibition of PKCa conserved Lys2 (DLKLDNVMLDSEGHIK) in human PBMC at 1 uM
[14] = biological target: STE20-like serine/threonine-protein kinase (Homo sapiens) (UniProt Q9H2G2); experiment: Inhibition of SLK conserved Lys1 (AQNKETSVLAAAKVIDTK) in human PBMC at 1 uM
Sequence of STE20-like serine/threonine-protein kinase (Homo sapiens) (Q9H2G2 whole entry, looked up): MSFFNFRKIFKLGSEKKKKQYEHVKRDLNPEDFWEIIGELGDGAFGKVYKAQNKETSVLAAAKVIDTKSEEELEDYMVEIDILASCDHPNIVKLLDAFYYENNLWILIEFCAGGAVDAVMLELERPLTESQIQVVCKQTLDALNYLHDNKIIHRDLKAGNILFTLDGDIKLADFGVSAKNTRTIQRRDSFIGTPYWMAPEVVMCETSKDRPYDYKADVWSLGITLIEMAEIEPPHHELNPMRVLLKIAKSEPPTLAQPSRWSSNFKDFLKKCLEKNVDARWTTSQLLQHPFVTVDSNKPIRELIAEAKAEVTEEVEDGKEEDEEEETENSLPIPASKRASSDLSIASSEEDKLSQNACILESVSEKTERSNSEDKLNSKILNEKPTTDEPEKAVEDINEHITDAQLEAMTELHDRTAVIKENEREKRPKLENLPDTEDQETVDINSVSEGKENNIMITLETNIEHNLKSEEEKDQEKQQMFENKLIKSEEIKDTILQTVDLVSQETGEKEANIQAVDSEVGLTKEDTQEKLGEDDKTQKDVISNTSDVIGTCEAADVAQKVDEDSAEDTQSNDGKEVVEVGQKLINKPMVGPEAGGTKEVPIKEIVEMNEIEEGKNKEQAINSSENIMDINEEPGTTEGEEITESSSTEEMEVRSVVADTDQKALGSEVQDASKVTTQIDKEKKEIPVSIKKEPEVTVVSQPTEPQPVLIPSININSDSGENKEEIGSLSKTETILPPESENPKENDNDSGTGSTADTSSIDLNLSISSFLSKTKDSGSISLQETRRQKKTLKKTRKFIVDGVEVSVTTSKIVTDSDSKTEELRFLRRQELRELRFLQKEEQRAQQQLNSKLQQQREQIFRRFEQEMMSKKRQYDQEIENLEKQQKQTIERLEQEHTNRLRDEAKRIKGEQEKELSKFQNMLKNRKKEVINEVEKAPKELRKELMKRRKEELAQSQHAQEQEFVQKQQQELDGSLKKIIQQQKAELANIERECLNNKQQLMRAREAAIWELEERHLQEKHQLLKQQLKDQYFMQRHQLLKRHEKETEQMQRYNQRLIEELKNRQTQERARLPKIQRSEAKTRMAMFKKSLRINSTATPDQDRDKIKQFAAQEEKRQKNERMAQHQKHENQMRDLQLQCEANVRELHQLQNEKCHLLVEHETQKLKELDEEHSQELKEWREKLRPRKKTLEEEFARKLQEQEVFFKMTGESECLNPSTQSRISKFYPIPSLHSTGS

[15] = biological target: Tyrosine-protein kinase HCK (Homo sapiens) (UniProt P08631); experiment: Inhibition of HCK activation Loop (EGAKFPIKWTAPEAINFGSFTIK) in human PBMC at 0.1 uM
[16] = biological target: Ribosomal protein S6 kinase alpha-4 (Homo sapiens) (UniProt O75676); experiment: Inhibition of MSK2 domain1 conserved Lys2 (DIKLENILLDSNGHVVLTDFGLSK) in human PBMC at 0.1 uM
[17] = biological target: Serine/threonine-protein kinase Nek8 (Homo sapiens) (UniProt Q86SG6); experiment: Inhibition of NEK8 conserved Lys2 (DLKTQNILLDK) in human PBMC at 0.1 uM
Sequence of Serine/threonine-protein kinase Nek8 (Homo sapiens) (Q86SG6 whole entry): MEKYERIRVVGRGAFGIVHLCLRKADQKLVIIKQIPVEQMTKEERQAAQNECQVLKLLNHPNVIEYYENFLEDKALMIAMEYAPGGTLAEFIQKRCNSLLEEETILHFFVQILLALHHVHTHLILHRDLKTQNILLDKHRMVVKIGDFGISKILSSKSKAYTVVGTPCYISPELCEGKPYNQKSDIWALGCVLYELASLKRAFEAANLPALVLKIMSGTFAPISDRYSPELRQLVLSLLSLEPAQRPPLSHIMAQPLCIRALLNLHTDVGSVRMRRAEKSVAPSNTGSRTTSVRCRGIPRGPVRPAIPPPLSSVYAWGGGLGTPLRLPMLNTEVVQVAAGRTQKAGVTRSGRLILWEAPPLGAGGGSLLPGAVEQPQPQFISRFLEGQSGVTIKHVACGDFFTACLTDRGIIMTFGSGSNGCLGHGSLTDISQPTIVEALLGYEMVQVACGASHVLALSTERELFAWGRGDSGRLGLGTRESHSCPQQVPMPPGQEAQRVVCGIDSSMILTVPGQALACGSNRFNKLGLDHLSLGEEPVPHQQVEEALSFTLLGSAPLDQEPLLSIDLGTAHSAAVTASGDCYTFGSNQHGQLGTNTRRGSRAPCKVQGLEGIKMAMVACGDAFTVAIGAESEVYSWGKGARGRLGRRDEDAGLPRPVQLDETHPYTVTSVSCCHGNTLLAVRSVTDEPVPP

[18] = biological target: Mitogen-activated protein kinase 13 (Homo sapiens) (UniProt O15264); experiment: Inhibition of p38d conserved Lys2 (DLKPGNLAVNEDCELK) in human PBMC at 0.1 uM
[19] = biological target: PAN2-PAN3 deadenylation complex subunit PAN3 (Homo sapiens) (UniProt Q58A45); experiment: Inhibition of PAN3 Protein Kinase Domain (VMDPTKILITGK) in human PBMC at 0.1 uM
Sequence of PAN2-PAN3 deadenylation complex subunit PAN3 (Homo sapiens) (Q58A45 whole entry, the tested form may be a part, one chain of several): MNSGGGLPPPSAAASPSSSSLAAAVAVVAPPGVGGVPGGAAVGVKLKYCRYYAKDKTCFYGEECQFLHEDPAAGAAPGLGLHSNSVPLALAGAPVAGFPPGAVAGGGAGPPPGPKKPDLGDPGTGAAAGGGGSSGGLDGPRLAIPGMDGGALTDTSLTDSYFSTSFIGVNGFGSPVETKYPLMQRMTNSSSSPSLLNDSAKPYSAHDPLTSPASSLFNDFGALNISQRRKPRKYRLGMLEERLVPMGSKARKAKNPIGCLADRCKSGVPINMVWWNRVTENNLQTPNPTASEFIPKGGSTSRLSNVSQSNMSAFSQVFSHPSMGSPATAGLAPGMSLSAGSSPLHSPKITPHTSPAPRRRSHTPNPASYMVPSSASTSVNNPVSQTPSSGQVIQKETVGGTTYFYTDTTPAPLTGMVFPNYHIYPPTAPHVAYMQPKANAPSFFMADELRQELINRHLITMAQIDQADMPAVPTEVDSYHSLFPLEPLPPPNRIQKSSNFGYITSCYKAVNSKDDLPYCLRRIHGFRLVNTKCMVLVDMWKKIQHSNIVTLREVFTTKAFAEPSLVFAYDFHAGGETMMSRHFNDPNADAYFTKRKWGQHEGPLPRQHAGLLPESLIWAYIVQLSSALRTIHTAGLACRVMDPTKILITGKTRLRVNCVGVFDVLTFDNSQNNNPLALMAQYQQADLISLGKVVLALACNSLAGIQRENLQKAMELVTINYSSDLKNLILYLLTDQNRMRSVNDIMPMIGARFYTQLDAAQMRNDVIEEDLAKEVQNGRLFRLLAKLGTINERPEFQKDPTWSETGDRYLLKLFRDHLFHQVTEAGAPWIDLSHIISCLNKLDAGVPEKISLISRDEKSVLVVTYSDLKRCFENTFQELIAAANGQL

For `CC(C)n1cc(-c2cc(-c3ccc(CN4CCOCC4)cc3)cnc2N)nn1`, which IC50 [1] is on record?
The IC50 was 2.1 µM.

What about the Kp uu [2] of the same compound?
Its Kp uu is 0.76.

What about the inhibition [3] of the same compound?
The inhibition was 34.8%.

And the inhibition [4]?
Its inhibition is -0.4%.

And the inhibition [5]?
The inhibition was 14.9%.

And the inhibition [6]?
The inhibition was -8.4%.

And the inhibition [7]?
The inhibition was -2%.

And the inhibition [8]?
Its inhibition is 11%.

What about the inhibition [9] of the same compound?
Its inhibition is 14.5%.

And the inhibition [10]?
Its inhibition is -9.2%.

What about the inhibition [11] of the same compound?
Its inhibition is -9.6%.

What about the inhibition [12] of the same compound?
The inhibition was 14%.

What about the inhibition [13] of the same compound?
The inhibition was -7.4%.

What about the inhibition [14] of the same compound?
The inhibition was 0.3%.

And the inhibition [15]?
The inhibition was -7.4%.

And the inhibition [16]?
Its inhibition is 31.2%.

And the inhibition [17]?
Its inhibition is 0.2%.

And the inhibition [18]?
The inhibition was 26.4%.

And the inhibition [19]?
The inhibition was 6.2%.
